No end group written: not given here.
Assay: Serum stability
Assay type: in vitro ADME

FAKKFAKKFK [Peptide B, Phe-Ala-Lys-Lys-Phe-Ala-Lys-Lys-Phe-Lys]
stability in serum: stable in serum

— patent US10016480B2, “Peptide-based methods for treating pancreatic cancer” (The United States of America, as represented by the …, priority 2014, dated 2018)
